For one experiment, the target named is GABAC receptors. The settings on record: Woodward et al, 1993, cited from earlier work; for Kb: read-out: KB (antagonist); for Kd: Johnston, 1996b, read-out: KD (agonist).
The subject of experiment [1] is T1, GABAA.
T1 construct: Activity at GABAA; other: Woodward et al, 1993; GABAA Kb; other: Ragozzino et al (1996); other: PMPA; source not given, column fo
Conditions: Na-independent [3H]GABA binding (Johnston et al, 1978); read-out: GABAA receptor affinity, IC50; cited from earlier work.

Experiment [2] addresses human r1 receptors (GABAC receptors) (Homo sapiens, UniProt P24046). As to the kind of experiment: Two-electrode voltage clamp recording of human r1 GABAC receptors expressed in Xenopus oocytes. Conditions: for EC50: r1 receptors in Xenopus oocytes, clamped at −60 mV; for IC50: IC50 (concentration that inhibits 50% of the response produced by 1 μM GABA), 1 μM GABA; for Mode of antagonism: Schild analysis; for Effect as agonist or antagonist at GABAC receptors: screened at 100 μM; for Activation of the receptor by compound alone / Effect on GABA response when co-applied with GABA (1 μM): FIG. 1. On the technique in general: In two-electrode clamp one electrode senses voltage and the other passes current.
Procedure: The plasmid was linearized with XbaI and cRNA made using the “Message Machine” kit from Ambion Inc. (Austin, Tex., USA). 50 ng of cRNA was injected into defolliculated Stage V Xenopus oocytes. Two to seven days later, receptor activity was measured by two-electrode voltage clamp recording, using a Geneclamp 500 amplifier (Axon Instruments Inc., Foster City, Calif., USA) and a MacLab 2e recorder (ADInstruments, Sydney, NSW, Australia). […] For receptor activation measurements, the indicated concentrations of agonist and antagonist were added to ND96.

Experiment [3] relates to T1, GABAA. Conditions: [3H]muscimol binding (Froestl et al, 1995a; 1995b), cited from earlier work; for IC50: read-out: GABAA receptor affinity, IC50.
In experiment [4] the test system is NMDA, benzodiazepine, quisqualate, kainate, muscarinic cholinergic, adrenergic, serotoninergic and histaminergic receptors. The settings on record: 1 mM; cited from earlier work.
For experiment [5], the system named is GABAA. The settings on record: cited from earlier work.
Another experiment addresses GABAB (Rattus norvegicus, UniProt Q9Z0U4). Also on record: from tissue; host or cells: rat cortical membranes / neocortical slices; values largely from the literature. The settings on record: [3H]CGP27492 binding (Froestl et al; Bittiger et al; Olpe et al); read-out: GABAB receptor affinity, IC50; cited from earlier work.
In the next experiment the target is T2, GABAC (human r1) (Homo sapiens, UniProt P24046).
T2 construct: host or cells: Xenopus oocytes expressing human r1 mRNA
Conditions: data from Murata et al, 1996; cited from earlier work.

Values joined by “and” are separate entries in the source; they are usually repeats but may differ in a detail not shown here. Identical values can stand only once. Like-named read-outs stand apart in the source and are kept apart here. Marks after values point to notes of the source that are not given here.

Sequence of human r1 receptors (GABAC receptors) (P24046 22-479): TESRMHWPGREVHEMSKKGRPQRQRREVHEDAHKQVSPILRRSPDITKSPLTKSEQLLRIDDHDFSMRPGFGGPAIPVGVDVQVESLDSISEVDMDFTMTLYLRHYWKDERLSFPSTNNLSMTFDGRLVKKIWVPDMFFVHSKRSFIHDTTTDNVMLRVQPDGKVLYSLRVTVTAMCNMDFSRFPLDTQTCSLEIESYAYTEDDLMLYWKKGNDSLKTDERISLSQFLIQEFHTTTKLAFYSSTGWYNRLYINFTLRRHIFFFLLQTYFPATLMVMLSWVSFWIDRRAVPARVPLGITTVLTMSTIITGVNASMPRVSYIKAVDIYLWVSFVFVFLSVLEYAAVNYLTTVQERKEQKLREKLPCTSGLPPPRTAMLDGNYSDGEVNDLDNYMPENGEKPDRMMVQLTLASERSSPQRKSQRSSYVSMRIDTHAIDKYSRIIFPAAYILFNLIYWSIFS
Sequence of GABAB (Q9Z0U4 17-960 limits assumed): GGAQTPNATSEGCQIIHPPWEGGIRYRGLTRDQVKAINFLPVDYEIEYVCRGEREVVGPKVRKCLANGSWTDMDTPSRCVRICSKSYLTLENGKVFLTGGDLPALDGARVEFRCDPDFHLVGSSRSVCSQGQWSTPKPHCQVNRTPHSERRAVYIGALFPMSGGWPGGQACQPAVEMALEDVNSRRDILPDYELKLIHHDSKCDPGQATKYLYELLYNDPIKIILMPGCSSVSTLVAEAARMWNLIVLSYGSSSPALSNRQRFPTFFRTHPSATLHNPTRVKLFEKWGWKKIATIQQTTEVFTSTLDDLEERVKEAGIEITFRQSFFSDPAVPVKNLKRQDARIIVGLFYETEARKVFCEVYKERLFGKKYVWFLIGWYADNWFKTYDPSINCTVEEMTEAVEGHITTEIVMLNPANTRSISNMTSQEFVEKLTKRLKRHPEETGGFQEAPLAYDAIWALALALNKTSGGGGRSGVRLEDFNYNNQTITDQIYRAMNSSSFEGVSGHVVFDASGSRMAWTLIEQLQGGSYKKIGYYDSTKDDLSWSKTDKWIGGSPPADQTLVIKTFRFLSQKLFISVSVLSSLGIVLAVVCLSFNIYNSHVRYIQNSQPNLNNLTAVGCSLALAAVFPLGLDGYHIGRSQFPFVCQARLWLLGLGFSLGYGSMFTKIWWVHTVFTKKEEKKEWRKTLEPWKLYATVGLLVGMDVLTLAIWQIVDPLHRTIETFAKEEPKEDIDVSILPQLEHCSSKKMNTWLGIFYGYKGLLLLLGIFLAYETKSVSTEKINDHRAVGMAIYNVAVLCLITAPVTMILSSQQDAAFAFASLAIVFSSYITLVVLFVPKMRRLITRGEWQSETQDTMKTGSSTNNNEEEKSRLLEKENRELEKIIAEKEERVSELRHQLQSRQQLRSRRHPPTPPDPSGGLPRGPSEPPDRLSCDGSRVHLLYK
Sequence of GABAB (O88871 41-940 partner): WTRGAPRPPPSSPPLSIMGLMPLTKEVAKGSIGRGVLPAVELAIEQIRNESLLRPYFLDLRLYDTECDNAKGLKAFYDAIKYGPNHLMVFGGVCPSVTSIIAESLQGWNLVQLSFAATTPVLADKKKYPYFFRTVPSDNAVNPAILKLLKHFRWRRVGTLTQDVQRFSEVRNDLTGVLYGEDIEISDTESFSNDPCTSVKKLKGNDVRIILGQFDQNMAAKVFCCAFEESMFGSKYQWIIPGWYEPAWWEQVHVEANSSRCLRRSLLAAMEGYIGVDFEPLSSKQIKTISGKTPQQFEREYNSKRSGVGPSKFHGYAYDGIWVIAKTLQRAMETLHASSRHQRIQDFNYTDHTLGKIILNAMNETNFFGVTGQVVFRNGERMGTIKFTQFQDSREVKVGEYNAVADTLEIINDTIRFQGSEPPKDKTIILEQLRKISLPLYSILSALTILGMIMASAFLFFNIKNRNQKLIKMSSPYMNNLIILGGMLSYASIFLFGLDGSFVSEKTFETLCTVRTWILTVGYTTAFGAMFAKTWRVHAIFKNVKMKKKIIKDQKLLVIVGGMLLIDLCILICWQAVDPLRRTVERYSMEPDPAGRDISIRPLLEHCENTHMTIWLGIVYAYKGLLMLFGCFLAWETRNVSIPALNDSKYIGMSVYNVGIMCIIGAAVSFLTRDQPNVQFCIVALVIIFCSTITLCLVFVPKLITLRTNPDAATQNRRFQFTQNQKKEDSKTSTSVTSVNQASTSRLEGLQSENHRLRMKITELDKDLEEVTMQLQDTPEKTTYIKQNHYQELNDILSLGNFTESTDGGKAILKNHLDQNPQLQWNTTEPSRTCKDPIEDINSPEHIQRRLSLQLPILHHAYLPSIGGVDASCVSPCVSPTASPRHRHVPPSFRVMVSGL
T2 sequence (P24046 22-479): as the sequence (P24046 22-479) above

In the case of `NCCCP(=O)(O)O` [3-APA, 3-aminopropylphosphonic acid], the Kb at GABAC receptors is 10 µM.
What is called IC50 is the concentration needed to halve the response being measured. Usually Kd stands for a measure of binding affinity in units of concentration. In general, EC50 refers to the concentration giving half of the maximal effect. As for `NC/C=C\C(=O)O` [CACA, cis-4-aminocrotonic acid], the concentration for half-maximal inhibition (IC50) in the experiment with GABAA [1] was 25 µM. At GABAC receptors, the dissociation constant (Kd) is 74 µM. For the same compound, in experiment [2], the “Activation of Cl− channel current by compound on its own” value (shortened to “Activation of Cl− channel current”) is “activated the Cl^− channel”, the “nH (Hill Coefficient)” value stood at 2.2 ± 0.3 and the “Maximal dose current as % of the maximal GABA activated current” value was 75%. The half-maximal effective concentration (EC50) in experiment [2] (EC50 (effective dose that activates 50% of the maximal current)) is 37.4 µM and 37 µM.
As to `NCCC[PH](=O)O` [CGP27492, 3-aminopropylphosphinic acid], the Kb on GABAC receptors is 1.8 µM. Also, in experiment [2], the “Activation of Cl− channel current” value was “did not activate any current on their own”, the Kb stood at 3.2 ± 1 µM, the “Slope of Schild Plot” value is listed as 0.99 and the “nH (Hill Coefficient)” value is reported as 1.9 ± 0.2. In experiment [2], the IC50 came to 2.47 ± 0.04 µM and the Mode of antagonism result was “competitive antagonists”. Besides, in experiment [2] ([Antagonist] 10 μM), the “nH of GABA curve in the presence of antagonist” value (“nH of GABA curve” for short) worked out at 2.3 ± 0.1. In addition, the “nH of GABA curve” value in experiment [2] ([Antagonist] 30 μM) was 2.4 ± 0.3. The “nH of GABA curve” value in experiment [2] ([Antagonist] 100 μM) came to 2.5 ± 0.2. Also, the half-maximal inhibitory concentration (IC50) with GABAA [3] was 1.7 µM.
With `CP(=O)(O)CCCN` [CGP35024, (3-aminopropyl)methylphosphinic acid], at GABAC receptors, the Kb is 0.8 µM. Also, in experiment [2], the “Activation of Cl− channel current” value is on record as “did not activate any current on their own”, the Kb was 0.58 ± 0.14 µM, the “Slope of Schild Plot” value is 1.14 and the “nH (Hill Coefficient)” value turned out to be 1.8 ± 0.1. For the same compound, in experiment [2], the IC50 worked out at 0.75 ± 0.07 µM and the Mode of antagonism result is reported as “competitive antagonists”. For the same compound, in experiment [2] ([Antagonist] 3 μM), the “nH of GABA curve” value is listed as 2.3 ± 0.1. Further, in experiment [2] ([Antagonist] 10 μM), the “nH of GABA curve” value came out at 2.2 ± 0.2. In addition, the “nH of GABA curve” value in experiment [2] ([Antagonist] 30 μM) came to 1.9 ± 0.2. Moreover, the “GABAA receptor affinity, IC50” value on GABAA [3] is “inactive at 10^k”.
For the compound `CCOC(OCC)P(=O)(O)CCCN` [CGP35348, 3-aminopropyl(diethoxymethyl)phosphinic acid], the “Effect as agonist or antagonist at GABAC receptors” value (from here on “Effect as agonist or antagonist”) in experiment [2] was “no effect as either agonists or antagonists”.
`CCCCP(=O)(O)CCCN` [CGP36742, (3-aminopropyl)-n-butylphosphinic acid]: the “Effect at other receptor types” value in experiment [4] is “no effect”. In addition, in the experiment with GABAA [5], the half-inhibitory concentration (IC50) is 500 µM.
For the compound `NC/C=C/[PH](=O)O` [CGP38593, [(E)-3-aminopropen-1-yl]phosphinic acid], in experiment [2], the “Activation of Cl− channel current” value is reported as “did not activate any current on their own”, the Kb was determined as 15.5 ± 1.7 µM, the “Slope of Schild Plot” value is reported as 0.95 and the “nH (Hill Coefficient)” value was determined as 1.8 ± 0.4. For the same compound, in experiment [2], the IC50 was 7.7 µM and 7.68 µM; the Mode of antagonism entry is listed as “competitive antagonists”. In experiment [2] (100 μM), the “Activation of the receptor by compound alone” value (from here on “Activation of the receptor”) is reported as “do not activate the receptor” and the “Effect on GABA response when co-applied with GABA (1 μM)” value (“Effect on GABA response when co-applied” below) is given as “the GABA response is blocked or reduced”. Moreover, the “nH of GABA curve” value in experiment [2] ([Antagonist] 30 μM) amounted to 2.7 ± 0.1. Also, the “nH of GABA curve” value in experiment [2] ([Antagonist] 60 μM) was determined as 2.5 ± 0.4. In addition, the “nH of GABA curve” value in experiment [2] ([Antagonist] 100 μM) was 3.0 ± 0.1. In the experiment on GABAA [3], the 50% inhibitory concentration (IC50) was 6.8 µM.
Turning to `CP(=O)(O)/C=C/CN` [CGP44530, [(E)-3-Aminopropen-1-yl]methylphosphinic acid], the concentration for half-maximal inhibition (IC50) at GABAB is 0.65 µM. For the same compound, in experiment [2], the “Activation of Cl− channel current” value was “did not activate any current on their own”, the Kb was 8.6 ± 1.6 µM, the “Slope of Schild Plot” value amounted to 1.01 and the “nH (Hill Coefficient)” value is reported as 2.4 ± 0.5. In experiment [2], the concentration for half-maximal inhibition (IC50) is 5.5 µM and 5.53 µM; the Mode of antagonism entry is given as “competitive antagonists”. For the same compound, in experiment [2] (100 μM), the “Activation of the receptor” value was “do not activate the receptor” and the “Effect on GABA response when co-applied” value is “the GABA response is blocked or reduced”. In experiment [2] ([Antagonist] 10 μM), the “nH of GABA curve” value came out at 2.6 ± 0.2. Also, the “nH of GABA curve” value in experiment [2] ([Antagonist] 30 μM) is recorded as 3.0 ± 0.1. Also, in experiment [2] ([Antagonist] 100 μM), the “nH of GABA curve” value turned out to be 3.7 ± 0.4. On GABAA [3], the “GABAA receptor affinity, IC50” value was “inactive at 100”.
With `NCCCP(=O)(O)CC1CCCCC1` [CGP46381, 3-aminopropyl(cyclohexylmethyl)phosphinic acid], the “Effect as agonist or antagonist” value in experiment [2] is “no effect as either agonists or antagonists”.
On to `NC[C@H](O)CP(=O)(O)CC1CCCCC1` [CGP51176, (2S)-3-amino-2-hydroxypropyl(cyclohexylmethyl)phosphinic acid], for which the “Effect as agonist or antagonist” value in experiment [2] is “no effect as either agonists or antagonists”.
Same read-out and setting: to `C[C@H](NC[C@@H](O)CP(=O)(O)Cc1ccccc1)c1ccc(Cl)c(Cl)c1` [CGP55845A] belongs “no effect as either agonists or antagonists”.
For `NC/C=C\[PH](=O)O` [CGP70522, [(Z)-3-aminopropen-1-yl]phosphinic acid], in experiment [2], the “Activation of Cl− channel current” value is “did not activate any current on their own”, the IC50 was over 300 µM and the Mode of antagonism result is “competitive antagonists”. Also, in experiment [2] (300 μM), the “Activation of the receptor” value is recorded as “do not activate the receptor” and the “Effect on GABA response when co-applied” value is “the GABA response is blocked or reduced”. Also, the IC50 in the experiment with GABAA [3] is 6.6 µM.
In the case of `CP(=O)(O)/C=C\CN` [CGP70523, [(Z)-3-aminopropen-1-yl]methylphosphinic acid], the IC50 at GABAB is 16 µM. In addition, in experiment [2], the “Activation of Cl− channel current” value was “did not activate any current on their own”; the “nH (Hill Coefficient)” value worked out at 1.6 ± 0.1; the IC50 was 38.9 µM and 38 µM; the Mode of antagonism entry is on record as “competitive antagonists”. Besides, in experiment [2] (100 μM), the “Activation of the receptor” value is on record as “do not activate the receptor” and the “Effect on GABA response when co-applied” value is reported as “the GABA response is blocked or reduced”. The half-maximal inhibitory concentration (IC50) in the experiment with GABAA [3] was 242 µM.
For `NCCCC(=O)O` [GABA, γ-Aminobutyric acid], in experiment [2], the “Activation of Cl− channel current” value was “activated the Cl^− channel” and the “nH (Hill Coefficient)” value is recorded as 2.6 ± 0.2.
As for `O=C(O)C1=CCNCC1` [Isoguvacine], the half-inhibitory concentration (IC50) in the experiment with GABAA [1] was 1.4 µM. Further, on GABAC (human r1), the 50% effective concentration (EC50) is 99 µM.
In the case of `NC/C=C/C(=O)O` [TACA, trans-4-aminocrotonic acid], the IC50 in the experiment on GABAA [1] was 0.14 µM. In addition, at GABAC receptors, the Kd is 0.6 µM. Moreover, in experiment [2], the “Activation of Cl− channel current” value is “activated the Cl^− channel”, the “nH (Hill Coefficient)” value was determined as 2.4 ± 0.2 and the “Maximal dose current as % of the maximal GABA activated current” value is reported as 95%. Moreover, in experiment [2] (read-out: EC50 (effective dose that activates 50% of the maximal current)), the EC50 stood at 0.44 ± 0.02 µM.

(Values after US6632806B1, “Neurologically-active compounds” (The University of Sydney, priority 1997, dated 2003).)
